Results from patent US10875851B2, “Factor XIIa inhibitors” (Merck Sharp & Dohme Corp., priority 2016, dated 2020).

Molecular target: human Factor XIIa (Homo sapiens (Human), UniProt P00748)
Test: Factor XIIa Assay
Format: biochemical
Settings: purified human Factor XIIa 500 pM; substrate n-Acetyl-Lys-Pro-Arg-AFC 100 μM; pH 7.4; read-out: FXIIa IC50
Description: The effectiveness of a compound of the present invention as an inhibitor of Coagulation Factor XIIa can be determined using a relevant purified serine protease, and an appropriate synthetic substrate. The rate of hydrolysis of the chromogenic or fluorogenic substrate by the relevant serine protease was measured both in the absence and presence of compounds of the present invention. Assays were conducted at room temperature or at 37° C. […] A decrease in the rate of fluorescence change in the presence of inhibitor is indicative of enzyme inhibition. Such methods are known to one skilled in the art.
Factor XIIa activity determinations were made in 50 mM HEPES buffer containing 150 mM NaCl, 5 mM CaCl2, and 0.1% PEG 8000 (polyethylene glycol; JT Baker or Fisher Scientific) at pH 7.4. Determinations were made using purified human Factor XIIa at a final concentration of 500 pM (Sekisui Diagnostics) and the synthetic substrate, n-Acetyl-Lys-Pro-Arg-AFC, TFA salt (Sigma #C6608) at a concentration of 100 μM.
Times required to achieve equilibration between enzyme and inhibitor were determined in control experiments. Initial velocities of product formation in the absence (Vo) or presence of inhibitor (Vi) were measured. IC50 was determined as the concentration of I yielding Vi=Vo/2.

Chain of human Factor XIIa (P00748 373-615): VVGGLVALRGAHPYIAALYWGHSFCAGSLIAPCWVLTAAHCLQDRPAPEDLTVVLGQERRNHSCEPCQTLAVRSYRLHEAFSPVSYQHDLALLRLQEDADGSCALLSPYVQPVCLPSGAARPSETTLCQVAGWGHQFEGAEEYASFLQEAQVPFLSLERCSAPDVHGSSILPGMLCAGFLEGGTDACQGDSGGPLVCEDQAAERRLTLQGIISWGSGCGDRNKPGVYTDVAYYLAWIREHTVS

**Q.** How did the IC50 turn out when Cc1ccc(OC(=O)N2CCN(C(=O)[C@@H](CCCCNC(C)C)NC3CCCCC3)[C@H](C(=O)NCc3cccs3)C2)c(Cl)c1C [Example 102, 2-chloro-3,4-dimethylphenyl (3S)-4-[N^2-cyclohexyl-N^6-(1-methylethyl)-D-lysyl]-3-[(thiophen-2-ylmethyl)carbamoyl]piperazine-1-carboxylate] was run?
**A.** 0.7 nM

**Q.** How did the IC50 turn out when CS(=O)(=O)NCCCC[C@@H](NC1CCC2(CC1)CCN(Cc1ccccc1)C2)C(=O)N1CCN(C(=O)Oc2ccccc2Cl)C[C@H]1C(=O)NCc1cccs1 (stereo partly drawn) [Example 54, 2-chlorophenyl (3S)-4-[N^2-(2-benzyl-2-azaspiro[4.5]dec-8-yl)-N~6~- (methylsulfonyl)-D-lysyl]-3-[(thiophen-2-ylmethyl)carbamoyl]piperazine-1-carboxylate] was run?
**A.** 8.1 nM

**Q.** Which IC50 does the source give for C[C@@H]1N=C(N2CCN(C(=O)[C@H](N)CCCCN3CCCCC3)[C@H](C(=O)NCc3cc4cnccc4s3)C2)O[C@H]1c1ccccc1 [Example 163, (2S)-4-[(4S,5S)-4-methyl-5-phenyl-4,5-dihydro-1,3-oxazol-2-yl]-1-(6-piperidin-1-yl-D-norleucyl)-N-(thieno[3,2-c]pyridin-2-ylmethyl)piperazine-2-carboxamide] here?
**A.** 15 nM

**Q.** Cc1ccc(OC(=O)N2CCN(C(=O)[C@@H](CCCCN3CCCCC3)NC3CCC4(CC3)CCN(Cc3ccccc3)C4)[C@H](C(=O)NCc3cccs3)C2)c(Cl)c1C (stereo partly drawn) [Example 104, 2-chloro-3,4-dimethylphenyl (3S)-4-[N-(2-benzyl-2-azaspiro[4.5]dec-8-yl)-6-piperidin-1-yl-D-norleucyl]-3-[(thiophen-2-ylmethyl)carbamoyl]piperazine-1-carboxylate] was tested. Which IC50 did it give?
**A.** 0.2 nM

**Q.** Cc1ccc(OC(=O)N2CCN(C(=O)[C@@H](CCCCNC(C)C)NC3CCC4(CC3)CCN(Cc3ccccc3)C4)[C@H](C(=O)NCc3cccs3)C2)c(Cl)c1C (stereo partly drawn) [Example 105, 2-chloro-3,4-dimethylphenyl (3S)-4-[N^2-(2-benzyl-2-azaspiro[4.5]dec-8-yl)-N^6-(1-methylethyl)-D-lysyl]-3-[(thiophen-2-ylmethyl)carbamoyl]piperazine-1-carboxylate] was tested. Which IC50 did it give?
**A.** 0.5 nM

**Q.** With CC(C)N[C@H](CCCCN1CCCCC1)C(=O)N1CCN(C2=N[C@@H](C)[C@H](c3ccccc3)O2)C[C@H]1C(=O)NCc1cccs1 [Example 115, (2S)-1-[N-(1-methylethyl)-6-piperidin-1-yl-D-norleucyl]-4-[(4S,5S)-4-methyl-5-phenyl-4,5-dihydro-1,3-oxazol-2-yl]-N-(thiophen-2-ylmethyl)piperazine-2-carboxamide] as the molecule, how does the IC50 read?
**A.** 3.8 nM

**Q.** How did the IC50 turn out when NCc1ccc(OC(=O)N2CCN(C(=O)[C@@H](CC3CCCCC3)NC3CCC4(CC3)CCN(Cc3ccccc3)C4)[C@H](C(=O)NCc3cccs3)C2)c2ccccc12 (stereo partly drawn) [Example 59, 4-(aminomethyl)naphthalen-1-yl (3S)-4-[N-(2-benzyl-2-azaspiro[4.5]dec-8-yl)-3-cyclohexyl-D-alanyl]-3-[(thiophen-2-ylmethyl)carbamoyl]piperazine-1-carboxylate] was run?
**A.** 4.6 nM

**Q.** For CC[C@@H](C)N[C@H](CCCCN1CCCCC1)C(=O)N1CCN(C2=N[C@@H](C)[C@H](c3ccccc3)O2)C[C@H]1C(=O)NCc1cccc(Cl)c1 [Example 170, (2S)-N-(3-chlorobenzyl)-4-[(4S,5S)-4-methyl-5-phenyl-4,5-dihydro-1,3-oxazol-2-yl]-1-{N-[(1R)-1-methylpropyl]-6-piperidin-1-yl-D-norleucyl}piperazine-2-carboxamide], which IC50 is on record?
**A.** 2.5 nM

**Q.** How did the IC50 turn out when O=C(NCc1cccs1)[C@@H]1CN(C(=O)Oc2ccccc2Cl)CCN1C(=O)[C@@H](CCCCN1CCCCC1)NC1CCC2(CC1)CCN(Cc1ccccc1)C2 (stereo partly drawn) [Example 88, 2-chlorophenyl (3S)-4-[N-(2-benzyl-2-azaspiro[4.5]dec-8-yl)-6-piperidin-1-yl-D-norleucyl]-3-[(thiophen-2-ylmethyl)carbamoyl]piperazine-1-carboxylate] was run?
**A.** 0.9 nM

**Q.** Which IC50 does the source give for O=C(NCc1cccs1)[C@@H]1CN(C(=O)Oc2ccc(F)c3cccnc23)CCN1C(=O)[C@@H](CC1CCCCC1)NC1CCCCC1 [Example 32, 5-fluoroquinolin-8-yl (3S)-4-(N,3-dicyclohexyl-D-alanyl)-3-[(thiophen-2-ylmethyl)carbamoyl]piperazine-1-carboxylate] here?
**A.** 5.2 nM

**Q.** With CN(C)CCCC[C@@H](NC1CCC2(CC1)CCN(Cc1ccccc1)C2)C(=O)N1CCN(C2=NC(C)(C)CO2)C[C@H]1C(=O)NCc1cccs1 (stereo partly drawn) [Example 141, (2S)-1-[N^2-(2-benzyl-2-azaspiro[4.5]dec-8-yl)-N^6,N^6-dimethyl-D-lysyl]-4-(4,4-dimethyl-4,5-dihydro-1,3-oxazol-2-yl)-N-(thiophen-2-ylmethyl)piperazine-2-carboxamide] as the molecule, how does the IC50 read?
**A.** 9.2 nM

**Q.** For Cc1ncnc2c(OC(=O)N3CCN(C(=O)[C@@H](CC4CCCCC4)NC4CCCCC4)[C@H](C(=O)NCc4cccs4)C3)cccc12 [Example 29, 4-methylquinazolin-8-yl (3S)-4-(N,3-dicyclohexyl-D-alanyl)-3-[(thiophen-2-ylmethyl)carbamoyl]piperazine-1-carboxylate], which IC50 is on record?
**A.** 3.3 nM

**Q.** With C[C@H]1N=C(N2CCN(C(=O)[C@@H](CCCCNS(C)(=O)=O)NC3CCCCC3)[C@H](C(=O)NCc3cccs3)C2)O[C@H]1c1ccccc1 [Example 151, (2S)-1-[N^2-cyclohexyl-N^6-(methylsulfonyl)-D-lysyl]-4-[(4R,5S)-4-methyl-5-phenyl-4,5-dihydro-1,3-oxazol-2-yl]-N-(thiophen-2-ylmethyl)piperazine-2-carboxamide] as the molecule, how does the IC50 read?
**A.** 14.2 nM

**Q.** With CN(C)CCCC[C@H](C(=O)N1CCN(C(=O)Cc2cccc3c2CCNC3)C[C@H]1C(=O)NCc1cccs1)N(C)C1CCC2(CC1)CCN(Cc1ccccc1)C2 (stereo partly drawn) [Example 96, (2S)-1-[N^2-(2-benzyl-2-azaspiro[4.5]dec-8-yl)-N^2,N^6,N^6-trimethyl-D-lysyl]-4-(1,2,3,4-tetrahydroisoquinolin-5-ylacetyl)-N-(thiophen-2-ylmethyl)piperazine-2-carboxamide] as the molecule, how does the IC50 read?
**A.** 11.9 nM

**Q.** C[C@@H]1N=C(N2CCN(C(=O)[C@@H](CCCCNS(C)(=O)=O)NC3CCCCC3)[C@H](C(=O)NCc3cccs3)C2)O[C@H]1c1cccc(Cl)c1 [Example 125, (2S)-4-[(4S,5S)-5-(3-chlorophenyl)-4-methyl-4,5-dihydro-1,3-oxazol-2-yl]-1-[N^2-cyclohexyl-N^6-(methylsulfonyl)-D-lysyl]-N-(thiophen-2-ylmethyl)piperazine-2-carboxamide] was tested. Which IC50 did it give?
**A.** 23 nM

**Q.** For C[C@@H]1N=C(N2CCN(C(=O)[C@@H](CCCCN(C)C)NC3CCC4(CC3)CCN(Cc3ccccc3)C4)[C@H](C(=O)NCc3cccs3)C2)O[C@H]1c1ccccc1 (stereo partly drawn) [Example 135, (2S)-1-[N^2-(2-benzyl-2-azaspiro[4.5]dec-8-yl)-N^6,N^6-dimethyl-D-lysyl]-4-[(4S,5S)-4-methyl-5-phenyl-4,5-dihydro-1,3-oxazol-2-yl]-N-(thiophen-2-ylmethyl)piperazine-2-carboxamide], which IC50 is on record?
**A.** 0.8 nM

**Q.** For CC(C)NCCCC[C@@H](NC(C)C)C(=O)N1CCN(C2=N[C@@H](C)[C@H](c3ccccc3)O2)C[C@H]1C(=O)NCc1cccc(Cl)c1 [Example 166, (2S)-1-[N^2,N^6-bis(1-methylethyl)-D-lysyl]-N-(3-chlorobenzyl)-4-[(4S,5S)-4-methyl-5-phenyl-4,5-dihydro-1,3-oxazol-2-yl]piperazine-2-carboxamide], which IC50 is on record?
**A.** 6.8 nM
